From US10851075B2, “Stat3 pathway inhibitors and cancer stem cell inhibitors” (Sumitomo Dainippon Pharma Oncology, Inc., priority 2007, dated 2020)
Like-named read-outs stand apart in the source and are kept apart here.

How the values were obtained:
H1299 cells = test: MTT cell viability, H1299; format: cell-based; conditions: Homo sapiens, NCI-H1299, MTT at 24 hours
Text: (§1) Cell Culture: HeLa, DU145, H1299, DLD1, SW480, A549, MCF7, LN18, HCT116, HepG2, Paca2, Panel, LNcap, FaDu, HT29, and PC3 cells (ATCC, Manassas, Va.) were maintained in Dulbecco's Modified Eagle Medium (DMEM) (Invitrogen, Carlsbad, Calif.) supplemented with 10% fetal bovine serum (MS) (Gemini Bio-Products, West Sacramento, Calif.) and 5% penicillin/streptomycin/amphotercin B (Invitrogen).
(§2) Cell Viability Determination: For 3-(4,5 dimethylthiazol-2-yl)-2,5-diphenyltetrazolium (MTT) (Sigma-Aldrich, St. Louis, Mo.) analysis, cells were plated in 96 well plates at 10,000 cells per well. 24 hours after plating, compound was added to cells at indicated doses. 22 hours following compound addition, MTT was added to each well (0.5 mg/ml, final concentration) and plates were incubated for an additional 2 hours at 37° C., Medium was then aspirated and the formazan product was solubilized in 100 μl of isopropyl alcohol. The absorbance of each well was measured at 570 nm using a microplate reader.
(§3) Identification of compounds that are apoptotic to a broad spectrum of cancer cells in vitro. Cells plated in 96 well plates and treated with indicated compounds were subjected to MTT analysis at 24 hours following compound treatment to determine cell viability.

HeLa cells = test: MTT cell viability, HeLa; format: cell-based; conditions: Homo sapiens, MTT at 24 hours
Text: as §1, §2, §3

DU145 cells = test: MTT cell viability, DU145; format: cell-based; conditions: Homo sapiens, DU-145, MTT at 24 hours
Text: as §1, §2, §3

[1] = target: T1, Stat3 DNA-binding activity (Homo sapiens, UniProt P40763); test: Stat3 DNA binding assay (EMSA), HeLa nuclear extract; format: biochemical; conditions: for inhibition % 1 × MTT IC50: compound at 1 × MTT IC50, untreated Stat3 retarded band set as 100; for inhibition % 3 × MTT IC50: compound at 3 × MTT IC50, untreated Stat3 retarded band set as 100
T1 construct: endogenous in cells; host or cells: HeLa cells (nuclear extract)
T1 sequence (P40763 whole entry): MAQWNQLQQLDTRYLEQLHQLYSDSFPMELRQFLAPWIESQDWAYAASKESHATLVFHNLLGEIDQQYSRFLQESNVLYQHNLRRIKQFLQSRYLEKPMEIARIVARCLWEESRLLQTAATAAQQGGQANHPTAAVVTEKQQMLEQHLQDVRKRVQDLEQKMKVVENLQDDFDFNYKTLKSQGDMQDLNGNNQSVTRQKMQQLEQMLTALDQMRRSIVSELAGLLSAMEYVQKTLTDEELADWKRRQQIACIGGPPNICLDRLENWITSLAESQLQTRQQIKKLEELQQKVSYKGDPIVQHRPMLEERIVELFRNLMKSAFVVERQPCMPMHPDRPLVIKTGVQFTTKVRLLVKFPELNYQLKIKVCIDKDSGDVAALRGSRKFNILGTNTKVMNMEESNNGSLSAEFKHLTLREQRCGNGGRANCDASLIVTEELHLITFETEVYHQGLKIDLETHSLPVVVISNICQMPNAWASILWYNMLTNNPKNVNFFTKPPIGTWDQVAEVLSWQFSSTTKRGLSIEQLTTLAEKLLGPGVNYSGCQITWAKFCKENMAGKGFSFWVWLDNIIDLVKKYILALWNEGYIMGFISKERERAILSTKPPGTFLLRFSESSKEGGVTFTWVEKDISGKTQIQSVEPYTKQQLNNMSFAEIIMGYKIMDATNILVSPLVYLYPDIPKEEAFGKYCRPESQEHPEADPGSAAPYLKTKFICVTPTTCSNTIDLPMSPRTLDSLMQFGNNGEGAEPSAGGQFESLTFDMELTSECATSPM
Protocol: STAT3 DNA Binding Assay: Electrophoretic mobility shift assay (EMSA) was performed as described by the manufacturer (Li-Cor Biosciences, Lincoln, Nebr.). Briefly, nuclear extracts were made from HeLa cells using the NucBuster Protein Extraction Kit as described by the manufacturer (EMD Biosciences, San Diego, Calif.). 5 μg of nuclear extract was pre-incubated with the indicated dose of indicated compound for 30 minutes prior to a 15-minute incubation with the IR700-labeled consensus Stat3 oligonucleotide. Samples were then electrophoresed on a polyacrylamide gel and directly scanned using the Odyssey infrared imaging system (Li-Cor Biosciences). For the enzyme-linked immunosorbent assay (ELISA), 5 μg of nuclear extract was preincubated with indicated concentration of indicated compound for 30 minutes prior to the addition of biotinylated oligo (5′-Biotin-[…]-3′). Stat3-DNA complexes were then captured on streptavidin coated 96 well plates (Pierce, Rockford, Ill.). Bound complexes were then incubated with Stat3 polyclonal antibody (Santa Cruz Biotechnology, Santa Cruz, Calif.) followed by anti-rabbit HRP conjugated secondary antibody (GE Healthcare, Pittsburgh, Pa.). Bound antibody was then visualized by addition of TMB substrate (Pierce) and absorbance measured at 450 nm.
Inhibition of Stat3 DNA-binding activity. Nuclear extracts from HeLa cells, which contain constitutively activated Stat3 as detected by phoshporylation at the tyrosine 705 residue, were used to perform Stat3 EMSAs to monitor Stat3 DNA binding activity. Nuclear extracts were incubated with indicated compound prior to incubation with IR700-labeled Stat3 consensus oligonucleotide. Binding of Stat3 to the oligonucleotide was monitored by gel electrophoresis and detection using a LiCor Odyssey infrared scanner.
To calculate the inhibition %, the density of the untreated Stat3 retarded band (control) was set as 100 and the inhibition % was the difference between the control and the relative DNA binding activity of the drug-treated samples.

SW480 Hoechst SP cells = test: Anti-CSC MTT assay, SW480 Hoechst side population (SP) cells; format: cell-based; conditions: Homo sapiens, 48 h
Protocol: as §2
(§4) Hoechst Side Population: To identify and isolate side population (SP) and non-SP fractions, SW480 cells were removed from the culture dish with trypsin and EDTA, pelleted by centrifugation, washed with phosphate-buffered saline (PBS), and resuspended at 37° C. in Dulbecco's modified Eagle's medium (DMEM) containing 2% FBS and 1 rnM HEPES. The cells were then labeled with Hoechst 33342 (Invitrogen) at a concentration of 5 μg/mL. The labeled cells were incubated for 120 minutes at 37° C., either alone or with 50 μM verapamil (Sigma-Aldrich, St. Louis). After staining, the cells were suspended in Hanks' balanced saline solution (MISS; Invitrogen) containing 2% FBS and 1 mM HEPES, passed a through 40 μm mesh filter, and maintained at 4° C. until flow cytometry analysis. The Hoechst dye was excited at 350 nm, and its fluorescence was measured at two wavelengths using a 450 DF10 (450/20 nm band-pass filter) and a 675LP (675 nm long-pass edge filter) optical filter. The gating on forward and side scatter was not stringent, and only debris was excluded.
(§5) In order to test compounds for anti-CSC activity, freshly isolated CSCs (SW480 Hoechst SP cells or CD44^high FaDu cells) were exposed to a dose range (30-0.117 μM) of compound for 48 h before examining cell viability by MTT assay. IC50s were estimated by plotting the percentage of surviving cells. As shown in Table 7 and Table 8, the compounds of present invention can target cancer stem cells.

SW480 NSP cells = test: Anti-CSC MTT assay, SW480 non-SP (NSP) cells; format: cell-based; conditions: Homo sapiens, 48 h
Protocol: as §2, §4, §5

DLD1 cells = test: MTT cell viability, DLD1; format: cell-based; conditions: Homo sapiens, DLD-1; DLD1, Colon; MTT at 24 hours; Table 3
Text: as §1, §2, §3

SW480 cells = test: MTT cell viability, SW480; format: cell-based; conditions: Homo sapiens; SW480, Colon; MTT at 24 hours; Table 3
Text: as §1, §2, §3

Paca2 cells = test: MTT cell viability, Paca2; format: cell-based; conditions: PaCa-2; Paca2, Pancreas; MTT at 24 hours; Table 3
Text: as §1, §2, §3

Panc1 cells = test: MTT cell viability, Panc1; format: cell-based; conditions: Homo sapiens, PANC-1; Panc1, Pancreas; MTT at 24 hours; Table 3
Text: as §1, §2, §3

PC3 cells = test: MTT cell viability, PC3; format: cell-based; conditions: Homo sapiens, PC-3; PC3, Prostate; MTT at 24 hours; Table 3
Text: as §1, §2, §3

[2] = tested on: Stat3 transcription activity; test: Stat3-luciferase (Stat3-Luc) reporter assay in HeLa cells, OSM stimulated; format: cell-based; conditions: Homo sapiens, compound 30 minutes before 25 ng/ml oncostatin M, 6 hours, read-out: IC50 in Stat3-Luc assays
Protocol: Luciferase Reporter Assay: HeLa Cells were co-transfected with Stat3-luciferase (Stat3-Luc) reporter vector (Panomics, Fremont, Calif.) and Renilla luciferase (Promega, Madison, Wis.) using Lipofectamine 2000 as described by the manufacturer (Invitrogen). Following transfection, cells were maintained in medium containing 0.5% FBS for 24 hours. Cells were then treated with the indicated compound for 30 minutes prior to the addition of 25 ng/ml oncostatin M (OSM) (R&D Systems, Minneapolis, Minn.) to the medium. 6 hours following OSM addition, cells were harvested and levels of firefly and renilla luciferase were measured using the Dual-Glo Luciferase Assay System as described by the manufacturer (Promega).
Inhibition of Stat3 transcription activity. Compounds were tested for their ability to inhibit Stat3 transcription activation activity in cells using a Stat3-luciferase (Stat3-luc) reporter construct. Cells transfected with Stat3-luc were cultured in reduced serum medium prior to addition of indicated compound for 30 minutes. Cells were then stimulated with 25 ng/ml oncostatin (OSM) for 6 hours followed by detection of Stat3-luc reporter activity.

A549 cells = test: MTT cell viability, A549; format: cell-based; conditions: Homo sapiens; A549, Lung; MTT at 24 hours following compound treatment; Table 3
Text: as §1, §2, §3

MCF7 cells = test: MTT cell viability, MCF7; format: cell-based; conditions: Homo sapiens; MCF7, Breast; MTT at 24 hours; Table 3
Text: as §1, §2, §3

HCT116 cells = test: MTT cell viability, HCT116; format: cell-based; conditions: Homo sapiens, HCT-116; HCT116, Colon; MTT at 24 hours; Table 3
Text: as §1, §2, §3

HT29 cells = test: MTT cell viability, HT29; format: cell-based; conditions: Homo sapiens, HT-29; HT29, Colon; MTT at 24 hours; Table 3
Text: as §1, §2, §3

[3] = H1299, Table 4, read-out: IC50 (μM) H1299
[4] = Hela, Table 4, read-out: IC50 (μM) Hela
[5] = DU145, Table 4, read-out: IC50 (μM) DU145
[6] = H1299, Lung, Table 3, read-out: IC50
[7] = HeLa, Cervix, Table 3, read-out: IC50
[8] = DU145, Prostate, Table 3, read-out: IC50

Structure (SMILES) | IC50 (H1299 cells; [3]) [µM] | IC50 (HeLa cells; [4]) [µM] | IC50 (DU145 cells; [5]) [µM] | further results
CCc1cc2c(o1)C(=O)c1ccccc1C2=O [Compound 101] | 3 to 10 | 11.7 | 3.7 | 
Cc1cc2c(o1)C(=O)c1ccccc1C2=O [Compound 102] |  | 11.4 |  | 
O=C1c2ccccc2C(=O)c2oc(Cc3ccccc3)cc21 [Compound 103] | 8.9 | 16.7 | > 10 | inhibition % 1 × MTT IC50 [1]: 98%; inhibition % 3 × MTT IC50 [1]: 26%
CCc1cc2c(o1)C(=O)c1cc(Cl)ccc1C2=O [Compound 105] | 8.4 | 13 | 6.5 | 
CCc1cc2c(o1)C(=O)c1cc(F)ccc1C2=O [Compound 106] |  |  | 4.84 | inhibition % 1 × MTT IC50 [1]: 26%; inhibition % 3 × MTT IC50 [1]: 51%; IC50 (SW480 Hoechst SP cells): 4.44 µM; IC50 (SW480 NSP cells): 2 µM
Cc1oc2c(c1-c1ccccc1)C(=O)c1ccccc1C2=O [Compound 108] |  | 20.7 | 30.8 | 
C=Cc1cc2c(o1)C(=O)c1ccccc1C2=O [Compound 201] |  |  | 1.76 | 
CC(O)c1cc2c(o1)C(=O)c1ccccc1C2=O (centres unmarked) [Compound 301] | 0.794 | 3.36 |  | inhibition % 1 × MTT IC50 [1]: 20%; inhibition % 3 × MTT IC50 [1]: 26%
CC(=O)OC(C)c1cc2c(o1)C(=O)c1ccccc1C2=O (centres unmarked) [Compound 303] |  |  | 2.88 | 
CC(=O)OC(C)c1cc2c(o1)C(=O)c1cc(F)ccc1C2=O (centres unmarked) [Compound 305] |  | 1.71 | 1.1 | 
O=C(c1ccccc1)c1cc2c(s1)C(=O)c1ccccc1C2=O [Compound 402] | 1.04 | 2.01 | 0.554 | IC50 (H1299 cells; [6]): 1.04 µM; IC50 (HeLa cells; [7]): 2.01 µM; IC50 (DLD1 cells): 2510 nM; IC50 (SW480 cells): 1490 nM; IC50 (Paca2 cells): 490 nM; IC50 (Panc1 cells): 7210 nM; IC50 (DU145 cells; [8]): 0.55 µM; IC50 (PC3 cells): 8480 nM; IC50 [2]: ~750 nM; inhibition % 1 × MTT IC50 [1]: 29%; inhibition % 3 × MTT IC50 [1]: 57%; IC50 (SW480 Hoechst SP cells): 0.4 µM; IC50 (SW480 NSP cells): 0.38 µM
O=C(c1ccc([N+](=O)[O-])cc1)c1cc2c(s1)C(=O)c1ccccc1C2=O [Compound 403] | 4 |  | 6.5 | 
O=C(O)c1cc2c(o1)C(=O)c1ccccc1C2=O [Compound 405] |  |  | 1.41 | 
COc1ccc(C(=O)c2cc3c(s2)C(=O)c2ccccc2C3=O)cc1 [Compound 407] | 4.11 | 3.78 | 2.1 | IC50 [2]: ~5000 nM
O=C(c1ccc(O)cc1)c1cc2c(s1)C(=O)c1ccccc1C2=O [Compound 408] | 3.62 | 4.47 | 0.554 | IC50 [2]: ~2000 nM
CC(=O)c1cc2c(s1)C(=O)c1ccccc1C2=O [Compound 409] | 1.03 | 1.88 | 0.442 | IC50 [2]: ~2000 nM
COc1ccc(C(=O)c2cc3c(s2)C(=O)c2ccccc2C3=O)cc1OC [Compound 410] | 1.88 | 2.52 | 0.239 | IC50 [2]: ~1000 nM
O=C(c1ccc(O)c(O)c1)c1cc2c(s1)C(=O)c1ccccc1C2=O [Compound 411] | 14.1 | 14.7 | 0.616 | 
COc1ccc(C(=O)c2cc3c(o2)C(=O)c2ccccc2C3=O)cc1OC [Compound 413] | 1.9 | 4.38 | 0.721 | 
O=Cc1cc2c(o1)C(=O)c1ccccc1C2=O [Compound 414] | 11.3 | 13 | 14.1 | 
O=C(c1ccccc1)c1cc2c(o1)C(=O)c1cc(Br)ccc1C2=O [Compound 415] | 6.5 | 10.5 | 9.8 | 
CC(=O)c1cc2c(o1)C(=O)c1cc(Cl)ccc1C2=O [Compound 416] | 0.337 | 0.711 | 0.211 | IC50 (A549 cells): 1900 nM; IC50 (H1299 cells; [6]): 0.25 µM; IC50 (MCF7 cells): 750 nM; IC50 (HeLa cells; [7]): 0.62 µM; IC50 (DLD1 cells): 540 nM; IC50 (SW480 cells): 440 nM; IC50 (HCT116 cells): 690 nM; IC50 (HT29 cells): 1910 nM; IC50 (Paca2 cells): 210 nM; IC50 (Panc1 cells): 2590 nM; IC50 (DU145 cells; [8]): 0.22 µM; IC50 (PC3 cells): 3100 nM; inhibition of Stat3 DNA binding (in words) ([1]; HeLa nuclear extract, FIG. 6A/6B): inhibits Stat3 DNA-binding activity
O=C(c1cccc(Cl)c1)c1cc2c(o1)C(=O)c1ccccc1C2=O [Compound 417] |  |  | 0.768 | 
O=C(c1ccccc1)c1cc2c(o1)C(=O)c1cc(F)ccc1C2=O [Compound 419] |  |  | 1.82 | 
